Assay results published in patent US20110177180A1, “HERBAL COMPOSITION AND METHOD FOR THE TREATMENT OF VIRAL INFECTION” (PIRAMAL LIFE SCIENCES LIMITED, priority 2008, published 2011).

Key:
HSV-2 [1] = experiment: CPE inhibition assay - crystal violet staining method; format: cell-based; settings: Human alphaherpesvirus 2; 25 μg/mL; Vero cells, HSV-2 100 TCID50, 48 hours
Method: The assay was designed to detect agents (in this case, the extracts) acting at any stage of the virus reproductive cycle. The assay was done as reported in Indian J. Med. Res., 2004, 120:24-29.
Vero cells (obtained in step 1 of Example 10) were propagated at a density of 1×10^4 cells/well in 96 well plate and incubated at 37° C. in a CO2 incubator for 24 hours to form a monolayer. […] Appropriate controls were included such as Vero cells alone (cell control), Vero cells with virus (virus control) and Vero cells with virus and the standard compound acyclovir. Acyclovir was checked at the following concentrations (DMSO stock of 20 mg/mL of acyclovir was diluted to 100 μg/mL with DMEM containing 2% FBS): 25 μg/mL, 3.125 μg/mL, 1.56 μg/mL and 0.78 μg/mL and 0.39 μg/mL. After one hour, cells were infected with a multiplicity of infection (moi) of 100 TCID50 of viral dose per well using viral stock obtained in step 2 of Example 10. The infected cells were incubated with maintenance medium (DMEM with 2% FBS) for another 48 hours. […] The staining solution was aspirated out and the plates rinsed using distilled water until all excess stain was washed away. The plates were allowed to dry for 24 hours. CPE was evaluated visually, after staining the plaques, and microscopically and graded according to the percentage of CPE inhibition as compared to controls. […]

HSV-2 [2] = experiment: Mouse vaginal model of HSV-2 infection (Example 15); format: in vivo, BALB/c mice; settings: 225mg/kg
Method: (§1) Female BALB/c mice of eight weeks age and body weight 18-20 g were used for intravaginal (IVAG) challenge (vaginal inoculation) with the virus (using viral stock of step 2 of example 10). Five days prior to the IVAG challenge, mice were injected subcutaneously (SC) with 2 mg of progesterone (Depo-Provera®; Pfizer, Belgium) in the upper back, using a 29-gauge needle. On the day of challenge, mice were anesthetized with Ketamine (150 mg/kg) and Xylazine (10 mg/kg) by intraperitoneal injection. Mice were inoculated intravaginally with 5×10^3 pfu of the virus using a micropipette in a total volume of 20 μL DMEM. […] Each group had ten animals. Animals were treated three times a day with the treatment intervals of 4 hours for 5 days. 20 μL of the above samples were injected into the vaginal vault using micropipette.
The animals were assessed daily for survival and extravaginal disease signs through 21 days of post inoculation (PI). The severity of the viral disease (extravaginal signs of disease) was quantified using a well-established lesion score scale, also known as five-point scale as follows: • 0: no apparent infection; • 1: few isolated papules and slight redness of extravaginal tissue; • 2: few isolated papules, ulcers, and/or eschar and/or swelling and redness of extravaginal tissue; • 3: multiple fused ulcers/eschars, moderate swelling and redness of extravaginal tissue with extension to surrounding tissue; • 4: ulceration with severe redness and swelling of extravaginal tissue with extension to surrounding tissue, rear leg paralysis; and • 5: severe ulceration of extravaginal tissue with extension to surrounding tissue, weight loss, rear leg paralysis and death.
The assay was performed as mentioned in Example 14 with modifications as mentioned below: • (i) Mice were inoculated intravaginally with 2×10^4 pfu of the virus instead of 5×10^3 pfu in Example 14. • (ii) Evaluation was done by topical application of the formulations (Formulation I, Formulation II and Formulation III) instead of injection of extracts into vaginal vault of the animals in Example 14. • (iii) One more group of animals was studied: “infection control group” in which the mice were inoculated with the virus but were not treated.
Extract of Example 1 (dissolved in PBS) was injected into the vaginal vault using micropipette. Formulation I, Formulation II and Formulation III were applied topically (25 mg) thrice daily for a 5 day period. 25 mg of Formulation IB, IIB or IIIB correspond to 375 mg/kg dose; 25 mg of Formulation IC, IIC or IIIC correspond to 750 mg/kg dose and 25 mg of Formulation ID, IID and IIID correspond to 1500 mg/kg dose evaluated in the animals.

HSV-2 [3] = experiment: Mouse vaginal model of HSV-2 infection (Example 14); format: in vivo, BALB/c mice; settings: 75 mg/kg in PBS intravaginal, three times a day for 5 days; 5×10^3 pfu; 21 days
Method: The assay was done as reported in Antiviral Research, 2006, 69:77-85.
as §1
The animals were assessed daily for survival and extravaginal disease signs through 21 days of post inoculation (PI). […]

[4] = positive control in evaluation of Formulation I
[5] = positive control in evaluation of Formulation II
[6] = positive control in evaluation of Formulation III
[7] = positive control in evaluation of extract of Example 1

## Nc1nc2c(ncn2COCCO)c(=O)[nH]1 [Acyclovir]
HSV-2 [1]
  inhibition at 25 µg/mL: 76 to 100%
HSV-2 [2]; [4]
  extravaginal disease: None of the mice showed extravaginal disease
  survival rate: 100%
HSV-2 [2]; [5]
  course of extravaginal disease: continued till day 21
  day on which extravaginal disease appeared: 18 days
  survival rate: 100%
HSV-2 [2]; [6]
  extravaginal disease: None of the mice showed extravaginal disease
  survival rate: 100%
HSV-2 [2]; [7]
  extravaginal disease: None of the mice showed extravaginal disease
  survival rate: 100%
HSV-2 [3]
  deaths during the experiment: None of the mice died during the experiment
  signs of extravaginal disease: None of the mice showed signs of extravaginal disease
